Patent US12502433B2, “Phosphonate-drug conjugates” (Massachusetts Eye and Ear Infirmary, priority 2016, dated 2025)
Like-named read-outs stand apart in the source and are kept apart here.

Columns and labels:
[1] = tested on: SG neurites; experiment: In vitro attraction of SG neurites after pre-binding to hydroxyapatite; type: cell-based
Description: This assay was performed to confirm that the DHF moiety within DHF-RIS (Example 1) remained available to attract neurites from a distance after binding to hydroxyapatite, a mineral substitute for bone. In a modification of the data shown in FIG. 14A, a separate set of experiments was performed in which RIS-DHF was pre-bound to hydroxyapatite pellets. The pellets were washed with media, and plated along with SGN explants. To visualize the hydroxyapatite pellets, a small amount of 6-FAM-ZOL (Example 4) was added to all samples. It was observed that neurites traveled up to […] before ending on and overlapping with hydroxyapatite pellets, as shown in FIG. 14C.

[2] = tested on: ribbon synapses; experiment: Ribbon synapse regeneration in organ of Corti explants after kainic acid; type: cell-based; details: 400 nM after two hours kainic acid
Description: To characterize the ability of DHF-RIS to regenerate ribbon synapses, a previously described organ of Corti explant system was used, wherein kainic acid was used to mimic excitotoxic damage to the ribbon synapse (see e.g., Wang et al, 7The Journal of Neuroscience: the official journal of the Society for Neuroscience, 2011, 31:7938-7949). Explants were treated with kainic acid for two hours to destroy synapses and then treated with 400 nM DHF, 400 nM RIS, or […] DHF-RIS (Example 1). Comparison was made with control samples not treated with kainic acid (KA−) and samples treated with kainic acid but no other drug (KA+). Synapses were detected by co-localization of CtBP2 and PSD95 as previously described and counted using the Amira program by an observer blinded to sample identity.

[3] = tested on: spiral ganglion neurons; experiment: In vitro spiral ganglion neurite outgrowth; type: cell-based, CBA/CaJ pups; details: 400 nM, 48 hours
Description: Cochleae were harvested from P3-4 CBA/CaJ pups, after which the spiral ganglion neurons were sharply dissected free in a clump of cells, divided into three roughly equal sections, and plated with fibronectin on Dulbecco's Modified Eagle's medium (DMEM). Individual sections were then treated with media alone, 400 nM DHF, 400 nM RIS, or 400 nM DHF-RIS (Example 1) for 48 hours. After fixing and immunostaining with TUJI, the neurites were visualized under confocal microscopy and the neurite length quantified using ImageJ.

[4] = Hearing measurements (ABR, DPOAE) after systemic 6-FAM-ZOL; type: in vivo, guinea pig
Description: ABRs were recorded via subdermal needle electrodes (vertex—ventrolateral to the pinna of the test ear with a ground at the base of the tail). The CAPs electrode was located near the round window niche. Sound level was incremented in 5 dB steps, from ˜10 dB below threshold to 90 dB sound pressure level (SPL). Threshold for ABRs and CAPs was defined as the lowest stimulus level at which a repeatable wave could be identified in the response waveform.
Distortion product otoacoustic emissions (DPOAEs) were recorded for primary tones (f1, f2) over the same f2 range of frequencies, with a frequency ratio of 1.2, and with the level of the f2 primary 10 dB less than f1 level. Primaries were incremented together in 5 dB steps from −10 dB below threshold to 80 dB SPL. Ear-canal sound pressure was amplified and digitally sampled, FFTs were computed and averaged, and the 2f1-f2 DPOAE and surrounding noise floor were extracted. Iso-response contours were interpolated from plots of response amplitude vs. sound level. Threshold is defined as the f1 level required to produce a DPOAE of −5 dB SPL.
Distortion product otoacoustic emissions (DPOAEs) and auditory brainstem responses (ABRs) were measured in the systemic and round window membrane (RWM) delivery experiments. […] Hearing was measured at 2.78, 4, 5.6, 8, 12, 16, 24, and 32 kHz. […]

[5] = Human temporal bone model: 6-FAM-ZOL delivery through the oval window
Description: 6-FAM-ZOL was synthesized as described in Example 4 and was dissolved in artificial perilymph (AP) at a concentration of 10 μg/μL. The content of AP (pH 7.4) was 130 mM NaCl, 3.5 mM KCl, 1.5 mM CaCl2, 5.5 mM glucose, and 20 mM HEPES.
Six freshly harvested cadaveric human temporal bones, which were obtained within 24 hours after death by the human temporal bone histopathology lab at Massachusetts Eye and Ear Infirmary, were used. The Pathology Quality Assurance Committee at Massachusetts General Hospital approved procurement of the specimens. The squamous and mastoid portions were drilled away, leaving the labyrinth. In three temporal bones, 1 μL of 10 μg/μL 6-FAM-ZOL was injected through the OW using a micropipette after lifting the stapes footplate. The footplate was then carefully laid back down. […]
Images (1024 by 1024; 8 bit) were collected using a Leica TCS-SP2 confocal microscope to generate maximum fluorescence images. To identify the surface of each specimen, the point of maximum fluorescence in the z-axis was first identified. A stack of images was then collected to a depth of 500 μm from the point of maximum fluorescence. […] ImageJ was used to quantify the amount of fluorescence associated with the labeled bisphosphonate within the lateral cochlear wall and the modiolus of the scala vestibuli and scala tympani at each half-turn, as shown in FIG. 11. […]

[6] = Round window membrane (RWM) alginate bead delivery of 6-FAM-ZOL: cochlear fluorescence; type: in vivo, guinea pig
Description: All animals were therefore analyzed after maximal bisphosphonate deposition. […] Round window delivery animals were analyzed at 3 weeks to allow middle ear inflammation to subside prior to hearing analysis and to account for transit across the RWM.
The inner ears were harvested and stripped of soft tissue. All subsequent steps were performed in covered vials to prevent 6-FAM-ZOL bleaching. Specimens were fixed in an excess volume of neutral buffered formalin (10%, Fisher Scientific, Pittsburgh PA) at room temperature for 24 hours. The neutral buffered formalin was changed and fixation continued for another 24 hours. To prepare for resin embedding, specimens were dehydrated in an ascending series of ethanol (Fisher Scientific, 24 hr at 70%, 1 hr at 70%, 1 hr at 85%, 0.5 hr at 95%, 0.5 hr at 100%) followed by a wash in xylene (Fisher Scientific) and a 15 minute immersion in xylene. Specimens were cleared of xylene by a 1 hour infiltration in methyl methacrylate (MMA, Acrylosin soft, Dorn and Hart, Villa Park, IL) under vacuum. The MMA solution was changed and samples were infiltrated for 24 hours under vacuum. The infiltration solution was changed and the process was repeated for another 24 hours. […]
High-resolution images (1360 by 1024; 16 bit) were taken under FITC illumination (470/40 excitation, 4951p dicroic; 525/50 emission) using a Carl Zeiss Axiovert 200 Inverted Microscope. ImageJ (Rasband WS, ImageJ, United States National Institutes of Health, Bethesda, Maryland, USA, 1997-2014) was used to quantify the amount of fluorescence within the cochlear wall and modiolus at each half-turn, as shown in FIG. 1. Background fluorescence, defined as the average amount of fluorescence in an area of the resin block containing no sample, was subtracted from all measurements. Fluorescence remained stable over at least two weeks after grinding if samples were kept in the dark at room temperature. […] Confocal images were collected over a depth of 500 μm to generate maximum fluorescence images. […]

[7] = type: in vivo
Description: Male albino guinea pigs (Hartley strain; Charles River Laboratories, Inc., Wilmington, MA), each weighing approximately 350 g, were used. Nembutal (12.5 mg/kg intraperitoneally), Fentanyl (0.1 mg/kg intramuscularly), and Droperidol (5 mg/kg intramuscularly) were given for anesthesia. Supplemental doses of 0.7 mg/kg Fentanyl and 3.0 mg/kg Droperidol alternating with 6.25 mg/kg Nembutal were administered as needed. Animals were euthanized using pentobarbital (Fatal-Plus) at 390 mg/kg. The Massachusetts Eye and Ear Infirmary Institutional Animal Care and Use Committee approved all procedures.
All animals were therefore analyzed after maximal bisphosphonate deposition. Systemic delivery animals were analyzed at 48 hrs to account for potential differences between IP (our system) and IV (human) delivery.
The inner ears were harvested and stripped of soft tissue. All subsequent steps were performed in covered vials to prevent 6-FAM-ZOL bleaching. Specimens were fixed in an excess volume of neutral buffered formalin (10%, Fisher Scientific, Pittsburgh PA) at room temperature for 24 hours. The neutral buffered formalin was changed and fixation continued for another 24 hours. To prepare for resin embedding, specimens were dehydrated in an ascending series of ethanol (Fisher Scientific, 24 hr at 70%, 1 hr at 70%, 1 hr at 85%, 0.5 hr at 95%, 0.5 hr at 100%) followed by a wash in xylene (Fisher Scientific) and a 15 minute immersion in xylene. Specimens were cleared of xylene by a 1 hour infiltration in methyl methacrylate (MMA, Acrylosin soft, Dorn and Hart, Villa Park, IL) under vacuum. The MMA solution was changed and samples were infiltrated for 24 hours under vacuum. The infiltration solution was changed and the process was repeated for another 24 hours. Specimens were embedded in a solution of MMA containing 0.25% w/v (2.5 g/L) of perkadox-16 (Dom and Hart) for several hours under vacuum. After several hours, specimens were sealed in 50 mL polypropylene tubes and maintained at room temperature in a heat sink until fully cured (approximately 5 days).
Sections were prepared for fluorescent imaging by orienting and grinding the sample surface to the level of the mid-modiolus. Surfaces were polished on a 12″ table mounted rotary wheel using water and a progressively finer series of silicon carbide abrasive papers ending with 2400 grit (Buehler, Lake Bluff, 11).
High-resolution images (1360 by 1024; 16 bit) were taken under FITC illumination (470/40 excitation, 4951p dicroic; 525/50 emission) using a Carl Zeiss Axiovert 200 Inverted Microscope. ImageJ (Rasband WS, ImageJ, United States National Institutes of Health, Bethesda, Maryland, USA, 1997-2014) was used to quantify the amount of fluorescence within the cochlear wall and modiolus at each half-turn, as shown in FIG. 1. Background fluorescence, defined as the average amount of fluorescence in an area of the resin block containing no sample, was subtracted from all measurements. Fluorescence remained stable over at least two weeks after grinding if samples were kept in the dark at room temperature. Some images were also collected using a Leica TCS-SP2 confocal microscope. Confocal images were collected over a depth of 500 μm to generate maximum fluorescence images.
Mixed model analysis of variance was used to analyze the effect of dose on fluorescent response in the cochlea.

[8] = Hearing measurements (CAP, DPOAE) after cochleostomy infusion; type: in vivo, guinea pig
Description: For the cochleostomy experiments, compound action potentials (CAPs) from the auditory nerve were substituted for ABRs.
A cochleostomy was performed approximately 0.5 mm distal to the round window via a bullectomy approach and the PTFE tubing was inserted into the scala tympani. Dental cement was used to seal the cochleostomy around the tubing. Infusion was performed at 1 μL over one minute, five times, spaced nine minutes apart. Control animals were treated with AP alone; 0.02× dosage animals were infused with 6-FAM-ZOL at 0.25 μg/μL; and 0.04× dosage animals were infused with 6-FAM-ZOL at 0.125 μg/μL+0.193 μg/μL zoledronate (total 4% of the 1× human zoledronate dose by molar weight). DPOAEs and CAPs were measured at time 0 (i.e., after cannula insertion and prior to infusion) and at 3 hrs. In independent experiments, three control animals were treated with AP alone, four animals were treated with AP containing 0.02× 6-FAM-ZOL, and three animals were treated with AP containing 0.04× 6-FAM-ZOL+zoledronate.

[9] = 6-FAM-ZOL infusion into the scala tympani via cochleostomy: cochlear fluorescence; type: in vivo, guinea pig
Description: All animals were therefore analyzed after maximal bisphosphonate deposition. […] Intracochlear delivery animals were analyzed at 3 hours as this timepoint allowed for high levels of delivery while avoiding the potential long-term effects of a cochleostomy.
The inner ears were harvested and stripped of soft tissue. All subsequent steps were performed in covered vials to prevent 6-FAM-ZOL bleaching. Specimens were fixed in an excess volume of neutral buffered formalin (10%, Fisher Scientific, Pittsburgh PA) at room temperature for 24 hours. The neutral buffered formalin was changed and fixation continued for another 24 hours. To prepare for resin embedding, specimens were dehydrated in an ascending series of ethanol (Fisher Scientific, 24 hr at 70%, 1 hr at 70%, 1 hr at 85%, 0.5 hr at 95%, 0.5 hr at 100%) followed by a wash in xylene (Fisher Scientific) and a 15 minute immersion in xylene. Specimens were cleared of xylene by a 1 hour infiltration in methyl methacrylate (MMA, Acrylosin soft, Dorn and Hart, Villa Park, IL) under vacuum. The MMA solution was changed and samples were infiltrated for 24 hours under vacuum. The infiltration solution was changed and the process was repeated for another 24 hours. Specimens were embedded in a solution of MMA containing 0.25% w/v (2.5 g/L) of perkadox-16 (Dom and Hart) for several hours under vacuum. […]
High-resolution images (1360 by 1024; 16 bit) were taken under FITC illumination (470/40 excitation, 4951p dicroic; 525/50 emission) using a Carl Zeiss Axiovert 200 Inverted Microscope. ImageJ (Rasband WS, ImageJ, United States National Institutes of Health, Bethesda, Maryland, USA, 1997-2014) was used to quantify the amount of fluorescence within the cochlear wall and modiolus at each half-turn, as shown in FIG. 1. Background fluorescence, defined as the average amount of fluorescence in an area of the resin block containing no sample, was subtracted from all measurements. […] Confocal images were collected over a depth of 500 μm to generate maximum fluorescence images. […]

[10] = Hearing measurements (ABR, DPOAE) after RWM 6-FAM-ZOL; type: in vivo, guinea pig
Source text: Acoustic stimuli were digitally generated and auditory responses were monitored using a National Instruments PXI stimulus generation/data acquisition system, which included a 24 bit digital I-O board (PXI-4461) and a 16 bit digital I-O board (PXI-6221) and the Eaton Peabody Laboratories Cochlear Function Test Suite. To elicit the auditory brainstem responses (ABRs) and the compound action potentials (CAPs), 5 ms tone pip stimuli were used with 0.5 ms rise/fall times (cosine squared) in alternating polarity at 33/s.
Acoustic stimuli were delivered via a custom acoustic assembly comprising two dynamic drivers as sound sources and a miniature electret microphone to measure sound pressure in situ (for a complete description, see e.g., http://www.masseyeandear.org/research/otolaryngology/investigators/laboratories/eaton-peabody-laboratories/ep1-engineering-resources). The response from the electrodes was amplified (10,000×), filtered (0.3-3 kHz bandpass), and averaged (512 samples at each frequency-level combination for ABRs and 128 samples for CAPs).
ABRs were recorded via subdermal needle electrodes (vertex—ventrolateral to the pinna of the test ear with a ground at the base of the tail). The CAPs electrode was located near the round window niche. […]
Distortion product otoacoustic emissions (DPOAEs) were recorded for primary tones (f1, f2) over the same f2 range of frequencies, with a frequency ratio of 1.2, and with the level of the f2 primary 10 dB less than f1 level. […]
Distortion product otoacoustic emissions (DPOAEs) and auditory brainstem responses (ABRs) were measured in the systemic and round window membrane (RWM) delivery experiments. […] Hearing was measured at 2.78, 4, 5.6, 8, 12, 16, 24, and 32 kHz.
The round window was visualized via a bullectomy approach and the beads were placed within the round window membrane (RWM) niche under direct microscopic visualization. […] DPOAEs and ABRs were first measured while animals were under anesthesia prior to bullectomy and again prior to analysis.

[11] = humans, cited from earlier work
[12] = systemic 1× and 3× doses, 48 hrs
[13] = 1× systemic dose (0.185 mg/kg IP), 48 hrs
[14] = control, 1× and 3× systemic doses
[15] = 0.02× cochleostomy infusion, 3 hrs, relative to control animals
[16] = three weeks after placement on the RWM

O=C(CCOCCOCCOCCOCCNC(=O)c1ccc(-c2cc(=O)c3ccc(O)c(O)c3o2)cc1)NCC(O)C[n+]1cccc(CC(O)(P(=O)(O)O)P(=O)(O)O)c1 (stereo not drawn) [DHF-RIS]
distance neurites traveled before ending on hydroxyapatite pellets ([1]; conjugate pre-bound to hydroxyapatite pellets): up to 400 μM | attraction of SG neurites after pre-binding to hydroxyapatite ([1]; in vitro): available to attract SG neurites | regeneration of ribbon synapses [2]: significant regeneration compared to non-rescued explants, although less than native DHF | neurite outgrowth (neurite length) [3]: significant outgrowth

O=C(NCC(O)C[n+]1ccn(CC(O)(P(=O)(O)O)P(=O)(O)O)c1)c1ccc(C(=O)O)c(-c2c3ccc(=O)cc-3oc3cc(O)ccc23)c1 (stereo not drawn) [Example 6-FAM-ZOL]
ABR change [4, 12]: No significant physiological changes | DPOAE change [4, 12]: No significant physiological changes | ototoxicity ([4]; systemic treatment): non-ototoxic | fluorescent signal in bony walls of the vestibular capsule and the cochlea ([5]; 1 μL of 10 μg/μL through the oval window, 4 days): strong fluorescent signal | effect of dose (6-FAM-ZOL vs artificial perilymph) on fluorescence, lateral wall and modiolus, scala vestibuli and scala tympani ([5]; all p<0.05): significant effect of dose | cochlear fluorescence ([6]; 0.1× dose on RWM, 3 weeks): lower, but still detectable | delivery throughout the lateral wall of the cochlea (fluorescence) ([6]; 0.3× dose in alginate bead on RWM, 3 weeks): comparable to the 1× systemic dose | levels of fluorescence in modiolus and lateral wall vs control ([6]; RWM delivery 0.1× and 0.3×): significantly higher than the control | average fluorescence stronger in tibiae compared to cochleae ([7]; 1× systemic dose): 50% | average fluorescence above control, cochleae [7, 13]: approximately 5,800 fluorescence units | average fluorescence above control, tibiae [7, 13]: ~8,800 fluorescence units | fluorescence in lateral wall of cochleae [7, 14]: increased with dose and the differences were statistically significant | fluorescence in tibiae [7, 14]: dose-dependent and statistically significant | additional CAP shift [8, 15]: 10-15 dB | additional DPOAE shift [8, 15]: 10-15 dB | immediate ototoxicity ([8]; direct infusion into the cochlea): without significant immediate ototoxicity | total average fluorescence of the lateral wall vs control ([9]; 0.2× dose (so in the source)): significantly greater | total average fluorescence of the modiolus vs control ([9]; 0.2× treatment (so in the source)): significantly greater | fluorescent signal along osseous spiral lamina of the modiolus and lateral wall of the cochlea ([9]; 2% (0.02×) of the 1× systemic dose, 3 hours): bright fluorescent signal | ototoxicity ([10]; local delivery onto the RWM): not ototoxic | ABR shift [10, 16]: no shifts | DPOAE shift [10, 16]: no shifts

O=P(O)(O)C(O)(Cc1cccnc1)P(=O)(O)O [RIS, reference compound]
regeneration of ribbon synapses [2]: some ability to regenerate synapses

O=P(O)(O)C(O)(Cn1ccnc1)P(=O)(O)O [zoledronate]
drug remaining in plasma ([11]; after 24 hours): less than 1% | plasma half-life ([11]; first of two half-lives): 12 min | plasma half-life ([11]; second of two half-lives): 84 min
